Reference: patent US20150307520A1, “NOVEL HETEROARYL AND HETEROCYCLE COMPOUNDS, COMPOSITIONS AND METHODS THEREOF” (HUTCHISON MEDIPHARMA LIMITED, priority 2012, published 2015)

How the values were obtained:
Type in all cases: biochemical
p110γ = p110γ (Homo sapiens, UniProt P48736); test: Transcreener KINASE Assay, kinase inhibition of p110γ; settings: for PI3Kγ IH % @ 1 uM: 1 uM test compound; for IC50: read-out: PI3Kγ IC50
Method: Kinase Inhibition assays of p110α/p85α, p110β/p85α, p110δ/p85α and p110γ PI3K kinases including p110α/p85α, p110δ/p85α and p110γ are purchased from Invitrogen, and p110β/p85α is from Millipore. Primary screening data and IC50 values are measured using Transcreener™ KINASE Assay (Bellbrook, Catalog #3003-10K). […] It is a universal, homogenous, high throughput screening (HTS) technology using a far-red, competitive fluorescence polarization immunoassay based on the detection of ADP to monitor the activity of enzymes that catalyze group transfer reactions. Briefly, the Transcreener KINASE Assay is designed as a simple two-part, endpoint assay. […] The plate is sealed and incubated for 80 min at room temperature. Next, 25 ul ADP detection mix is added per well. The plate is sealed again and incubated for 60 min at room temperature, and then measure fluorescence polarization by Tecan Infinite F500 Reader. Data is analyzed and IC50s are generated using the add-in software for Microsoft Excel, Xlfit™ (version 2.0).

p110β/p85α = p110β/p85α (Homo sapiens, UniProt P42338); test: Transcreener KINASE Assay, kinase inhibition of p110β/p85α; settings: for PI3Kβ IH % @ 1 uM: 1 uM test compound; for IC50: read-out: PI3Kβ IC50
Method: (§1) PI3K kinases including p110α/p85α, p110δ/p85α and p110γ are purchased from Invitrogen, and p110β/p85α is from Millipore.
(§2) Primary screening data and IC50 values are measured using Transcreener™ KINASE Assay (Bellbrook, Catalog #3003-10K). […] It is a universal, homogenous, high throughput screening (HTS) technology using a far-red, competitive fluorescence polarization immunoassay based on the detection of ADP to monitor the activity of enzymes that catalyze group transfer reactions. Briefly, the Transcreener KINASE Assay is designed as a simple two-part, endpoint assay.
(§3) In the first step, the 25 ul kinase reaction is performed by preparing a reaction mixture containing 5 ul test compound (2% DMSO final concentration), 10 ul kinase, buffer (50 mM HEPES, 100 mM NaCl, 1 mM EGTA, 0.03% CHAPS, 3 mM MgCl2, and freshly supplemented 1 mM DTT), and 10 ul 30 uM PIP2/10 uM ATP. The plate is sealed and incubated for 80 min at room temperature. Next, 25 ul ADP detection mix is added per well. The plate is sealed again and incubated for 60 min at room temperature, and then measure fluorescence polarization by Tecan Infinite F500 Reader.
(§4) Data is analyzed and IC50s are generated using the add-in software for Microsoft Excel, Xlfit™ (version 2.0). IH %=(ADP amount under 2% DMSO-ADP amount under test compound)/ADP amount under 2% DMSO.

p110δ/p85α = p110δ/p85α (Homo sapiens, UniProt O00329); test: Transcreener KINASE Assay, kinase inhibition of p110δ/p85α; settings: for PI3Kδ IH % @ 1 uM: 1 uM test compound; for IC50: read-out: PI3Kδ IC50
Method: as §1, §2, §3, §4

Sequence of p110δ/p85α (O00329 whole entry): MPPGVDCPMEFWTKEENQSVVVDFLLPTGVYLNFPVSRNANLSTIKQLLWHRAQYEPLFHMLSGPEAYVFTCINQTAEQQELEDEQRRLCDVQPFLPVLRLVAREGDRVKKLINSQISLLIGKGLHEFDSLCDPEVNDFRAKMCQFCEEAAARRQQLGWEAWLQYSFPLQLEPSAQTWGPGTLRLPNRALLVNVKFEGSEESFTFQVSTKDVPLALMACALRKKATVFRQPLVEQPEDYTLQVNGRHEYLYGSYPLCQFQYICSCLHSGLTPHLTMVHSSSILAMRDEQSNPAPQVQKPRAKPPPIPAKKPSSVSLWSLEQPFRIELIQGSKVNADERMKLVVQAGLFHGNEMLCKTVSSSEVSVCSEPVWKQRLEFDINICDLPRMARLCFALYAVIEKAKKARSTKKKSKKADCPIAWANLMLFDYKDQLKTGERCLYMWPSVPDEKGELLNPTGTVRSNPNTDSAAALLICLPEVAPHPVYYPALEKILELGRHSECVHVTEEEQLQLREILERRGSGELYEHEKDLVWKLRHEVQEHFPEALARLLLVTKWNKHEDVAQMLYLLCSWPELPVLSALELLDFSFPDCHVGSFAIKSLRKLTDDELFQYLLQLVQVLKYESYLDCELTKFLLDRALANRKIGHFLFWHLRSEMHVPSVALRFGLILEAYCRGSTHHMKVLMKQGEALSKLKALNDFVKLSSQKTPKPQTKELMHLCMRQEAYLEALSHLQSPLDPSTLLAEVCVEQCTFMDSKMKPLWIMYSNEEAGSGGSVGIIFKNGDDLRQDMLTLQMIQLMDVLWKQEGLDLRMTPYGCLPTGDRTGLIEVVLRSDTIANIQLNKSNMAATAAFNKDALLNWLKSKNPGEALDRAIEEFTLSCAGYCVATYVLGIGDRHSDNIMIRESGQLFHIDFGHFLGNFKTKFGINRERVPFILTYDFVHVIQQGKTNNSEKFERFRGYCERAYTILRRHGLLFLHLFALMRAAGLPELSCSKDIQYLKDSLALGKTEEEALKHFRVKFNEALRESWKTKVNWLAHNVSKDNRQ
Sequence of p110δ/p85α (P27986 whole entry partner): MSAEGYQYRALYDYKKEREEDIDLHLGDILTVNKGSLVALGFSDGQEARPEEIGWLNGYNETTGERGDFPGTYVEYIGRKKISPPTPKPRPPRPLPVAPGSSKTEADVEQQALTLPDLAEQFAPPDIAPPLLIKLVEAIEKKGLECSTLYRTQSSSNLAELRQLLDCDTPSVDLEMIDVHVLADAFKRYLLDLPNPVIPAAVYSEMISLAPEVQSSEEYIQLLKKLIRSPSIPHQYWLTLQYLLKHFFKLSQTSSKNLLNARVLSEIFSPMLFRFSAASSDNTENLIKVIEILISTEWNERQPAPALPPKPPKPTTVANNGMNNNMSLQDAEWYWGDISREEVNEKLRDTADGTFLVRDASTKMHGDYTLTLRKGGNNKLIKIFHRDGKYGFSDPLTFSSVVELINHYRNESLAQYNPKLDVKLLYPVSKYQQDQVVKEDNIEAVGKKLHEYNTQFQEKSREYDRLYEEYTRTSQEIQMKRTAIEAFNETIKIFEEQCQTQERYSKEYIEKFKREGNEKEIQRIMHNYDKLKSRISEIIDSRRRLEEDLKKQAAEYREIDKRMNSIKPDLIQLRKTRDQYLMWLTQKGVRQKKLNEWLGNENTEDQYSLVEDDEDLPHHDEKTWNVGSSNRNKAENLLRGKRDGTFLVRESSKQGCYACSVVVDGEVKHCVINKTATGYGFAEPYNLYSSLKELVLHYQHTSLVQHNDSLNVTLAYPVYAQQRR
Sequence of p110β/p85α (P42338 whole entry): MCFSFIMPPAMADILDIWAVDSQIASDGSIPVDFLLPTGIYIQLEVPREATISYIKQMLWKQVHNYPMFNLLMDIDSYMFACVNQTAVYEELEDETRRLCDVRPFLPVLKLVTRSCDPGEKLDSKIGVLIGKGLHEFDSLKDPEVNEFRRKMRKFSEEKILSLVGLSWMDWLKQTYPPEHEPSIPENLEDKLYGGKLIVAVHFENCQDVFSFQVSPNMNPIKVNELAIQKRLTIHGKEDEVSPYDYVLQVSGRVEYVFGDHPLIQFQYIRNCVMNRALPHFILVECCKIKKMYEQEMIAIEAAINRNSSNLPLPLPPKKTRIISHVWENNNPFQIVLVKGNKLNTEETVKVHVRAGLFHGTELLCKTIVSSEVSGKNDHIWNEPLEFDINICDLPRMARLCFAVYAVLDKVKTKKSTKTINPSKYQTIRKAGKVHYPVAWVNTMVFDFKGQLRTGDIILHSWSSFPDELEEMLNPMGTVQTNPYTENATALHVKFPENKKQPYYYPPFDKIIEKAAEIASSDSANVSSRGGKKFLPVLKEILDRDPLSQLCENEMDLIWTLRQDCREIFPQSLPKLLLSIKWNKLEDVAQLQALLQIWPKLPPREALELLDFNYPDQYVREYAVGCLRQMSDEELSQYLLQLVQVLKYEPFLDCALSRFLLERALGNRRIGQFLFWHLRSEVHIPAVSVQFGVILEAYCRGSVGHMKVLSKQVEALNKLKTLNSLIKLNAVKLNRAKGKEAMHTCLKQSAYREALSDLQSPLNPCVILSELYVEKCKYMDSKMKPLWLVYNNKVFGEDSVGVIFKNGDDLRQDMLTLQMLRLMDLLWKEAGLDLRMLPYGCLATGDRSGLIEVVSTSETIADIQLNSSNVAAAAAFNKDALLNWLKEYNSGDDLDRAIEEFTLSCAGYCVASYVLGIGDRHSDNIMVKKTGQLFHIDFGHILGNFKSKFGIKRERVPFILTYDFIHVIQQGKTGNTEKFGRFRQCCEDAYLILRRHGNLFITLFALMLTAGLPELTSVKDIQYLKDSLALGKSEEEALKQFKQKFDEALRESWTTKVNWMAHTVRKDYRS
Sequence of p110β/p85α (P27986 2-724 partner): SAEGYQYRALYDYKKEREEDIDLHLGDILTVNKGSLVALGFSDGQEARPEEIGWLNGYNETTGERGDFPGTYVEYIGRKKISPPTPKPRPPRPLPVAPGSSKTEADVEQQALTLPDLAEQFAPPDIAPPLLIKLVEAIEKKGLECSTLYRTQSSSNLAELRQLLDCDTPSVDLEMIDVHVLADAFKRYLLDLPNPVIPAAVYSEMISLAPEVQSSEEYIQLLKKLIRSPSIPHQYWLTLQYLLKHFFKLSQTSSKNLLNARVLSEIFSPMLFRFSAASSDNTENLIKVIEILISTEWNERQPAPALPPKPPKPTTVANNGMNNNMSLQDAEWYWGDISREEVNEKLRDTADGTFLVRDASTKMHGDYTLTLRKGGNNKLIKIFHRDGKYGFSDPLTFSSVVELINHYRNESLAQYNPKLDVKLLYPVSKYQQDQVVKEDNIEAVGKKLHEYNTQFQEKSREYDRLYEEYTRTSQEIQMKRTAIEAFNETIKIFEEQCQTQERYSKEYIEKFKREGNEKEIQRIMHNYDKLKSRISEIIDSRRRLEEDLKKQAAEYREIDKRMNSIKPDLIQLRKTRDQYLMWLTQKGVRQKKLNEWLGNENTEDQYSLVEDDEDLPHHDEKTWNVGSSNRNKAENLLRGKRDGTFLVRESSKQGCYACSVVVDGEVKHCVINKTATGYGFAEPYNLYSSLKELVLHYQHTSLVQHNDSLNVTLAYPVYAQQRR
Sequence of p110γ (P48736 whole entry): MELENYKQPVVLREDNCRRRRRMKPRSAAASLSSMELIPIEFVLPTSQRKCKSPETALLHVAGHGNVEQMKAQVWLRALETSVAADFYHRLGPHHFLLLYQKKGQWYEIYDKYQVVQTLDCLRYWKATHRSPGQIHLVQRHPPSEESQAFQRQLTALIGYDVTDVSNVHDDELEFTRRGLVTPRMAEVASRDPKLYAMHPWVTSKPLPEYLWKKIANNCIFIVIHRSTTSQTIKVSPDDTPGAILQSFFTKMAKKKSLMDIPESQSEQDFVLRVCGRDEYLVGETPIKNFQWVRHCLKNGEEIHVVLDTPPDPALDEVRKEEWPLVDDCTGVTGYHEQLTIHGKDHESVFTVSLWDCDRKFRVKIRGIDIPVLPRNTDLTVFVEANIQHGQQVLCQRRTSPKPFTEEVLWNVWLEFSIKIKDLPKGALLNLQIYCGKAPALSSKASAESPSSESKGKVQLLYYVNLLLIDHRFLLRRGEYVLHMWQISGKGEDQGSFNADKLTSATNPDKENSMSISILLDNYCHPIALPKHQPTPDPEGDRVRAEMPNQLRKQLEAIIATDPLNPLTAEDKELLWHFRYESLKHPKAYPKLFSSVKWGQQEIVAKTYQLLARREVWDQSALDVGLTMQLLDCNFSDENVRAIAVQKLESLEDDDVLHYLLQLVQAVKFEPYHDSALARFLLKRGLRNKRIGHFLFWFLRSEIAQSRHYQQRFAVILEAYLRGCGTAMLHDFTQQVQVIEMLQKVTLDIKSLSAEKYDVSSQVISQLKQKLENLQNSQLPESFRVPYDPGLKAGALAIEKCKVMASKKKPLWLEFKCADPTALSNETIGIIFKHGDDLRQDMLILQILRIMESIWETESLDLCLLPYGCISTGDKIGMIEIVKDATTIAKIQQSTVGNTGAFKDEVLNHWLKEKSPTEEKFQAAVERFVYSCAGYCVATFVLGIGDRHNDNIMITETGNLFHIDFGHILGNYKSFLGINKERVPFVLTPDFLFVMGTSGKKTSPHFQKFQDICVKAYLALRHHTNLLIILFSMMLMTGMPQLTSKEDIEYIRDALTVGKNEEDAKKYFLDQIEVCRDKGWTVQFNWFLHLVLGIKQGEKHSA

Structure (SMILES)	PI3Kγ IH % @ 1 uM (p110γ)	PI3Kβ IH % @ 1 uM (p110β/p85α)	PI3Kδ IH % @ 1 uM (p110δ/p85α)	IC50 (p110γ)	IC50 (p110β/p85α)	IC50 (p110δ/p85α)
N#Cc1cccc(-n2c([C@@H]3CCCN3c3ncnc4[nH]cnc34)nn3ccc(Cl)c3c2=O)c1 [Compound 40]	6.5%	19.8%	74.0%			
O=c1c2c(Cl)ccn2nc([C@@H]2CCCN2c2ncnc3[nH]cnc23)n1-c1ccc(F)cc1 [Compound 41]	>100%	80.2%	91.7%	0.021 µM	0.066 µM	0.006 µM
Cc1ccn2nc([C@@H]3CCCN3c3ncnc(N)c3Cl)n(-c3ccccc3)c(=O)c12 [Compound 45]	80.9%	71.9%	100%	0.172 µM	0.795 µM	
N#Cc1c[nH]c2ncnc(N3CC[C@H]3c3nn4ccc(F)c4c(=O)n3-c3ccccc3)c12 [Compound 46]	68.1%	33.8%	>100%			0.014 µM
O=c1c2c(Cl)ccn2nc([C@@H]2C[C@@H](F)CN2c2ncnc3[nH]cnc23)n1-c1ccccc1 [Compound 47]	84.7%	47.3%	>100%	0.152 µM		0.026 µM
N#Cc1c[nH]c2ncnc(N3C[C@H](F)C[C@H]3c3nn4ccc(Cl)c4c(=O)n3-c3ccccc3)c12 [Compound 48]	86.1%	69.7%	98.4%	0.058 µM	0.501 µM	0.004 µM
Nc1nc(N2CCC[C@H]2c2nn3ccc(Cl)c3c(=O)n2-c2ccccc2)ncc1C(F)(F)F [Compound 49]	8.9%	−4.8%	8.4%			
CC(Nc1ncnc2[nH]cnc12)c1cn2ccc(Cl)c2c(=O)n1-c1ccccc1 (centres unmarked) [Compound 87]	>100%	90.8%		0.008 µM	0.049 µM	
Nc1ncc(C(=O)C(F)(F)F)c(N2CC[C@H]2c2nn3ccc(Cl)c3c(=O)n2-c2ccccc2)n1 [Compound 325]						0.524 µM
Nc1nc(N2CC[C@H]2c2nn3ccc(Cl)c3c(=O)n2-c2ccccc2)c2cccn2n1 [Compound 329, (S)-2-(1-(2-aminopyrrolo[2,1-f][1,2,4]triazin-4-yl)azetidin-2-yl)-5-chloro-3-phenyl-pyrrolo[2,1-f][1,2,4]triazin-4(3H)-one]	91.6%		50.3%	0.227 µM		
N#Cc1cnc(N)nc1N1CCC1c1nn2ccc(Cl)c2c(=O)n1CC1CC1 (centres unmarked) [Compound 373]		37.4%				
C[C@H]1CN(c2ncnc(N)c2C#N)C1c1nn2ccc(Cl)c2c(=O)n1-c1ccccc1 (some centres unmarked) [Compound 494]	93.5%	55.70%				
CC(=O)c1cnc(N)nc1N1CC[C@H]1c1nn2ccc(Cl)c2c(=O)n1-c1cc(F)cc(F)c1 [Compound 495]	>100%		99.5%			
CC(=O)c1cnc(N)nc1N1CC[C@H]1c1nn2ccc(C#N)c2c(=O)n1-c1ccccc1 [Compound 498]	>100%		>100%	0.013 µM		0.021 µM
CC(=O)c1c(N)ncnc1N1C[C@H](C)[C@H]1c1nn2ccc(Cl)c2c(=O)n1-c1ccccc1 [Compound 509]	>100%		>100%			
CC(=O)c1cnc(N)nc1N1C[C@H](C)[C@H]1c1nn2ccc(Cl)c2c(=O)n1-c1cc(F)cc(F)c1 [Compound 518]	>100%		>100%			
